EC50 data for 18 molecules are collected here from US20250361268A1, “NOVEL ANTI-INFLAMMATORY PEPTIDE AND USE THEREOF” (NOVACELL TECHNOLOGY INC., priority 2022, published 2025).

The structures appear in SMILES notation. Peptide text beside a SMILES is read from it.

The target in test [1] is T1, FPR2 (Homo sapiens, UniProt P25090).
T1 construct: expressed in transfected cells; host or cells: RBL cells (RBL-FPR2)
T1 sequence (P25090 1-351): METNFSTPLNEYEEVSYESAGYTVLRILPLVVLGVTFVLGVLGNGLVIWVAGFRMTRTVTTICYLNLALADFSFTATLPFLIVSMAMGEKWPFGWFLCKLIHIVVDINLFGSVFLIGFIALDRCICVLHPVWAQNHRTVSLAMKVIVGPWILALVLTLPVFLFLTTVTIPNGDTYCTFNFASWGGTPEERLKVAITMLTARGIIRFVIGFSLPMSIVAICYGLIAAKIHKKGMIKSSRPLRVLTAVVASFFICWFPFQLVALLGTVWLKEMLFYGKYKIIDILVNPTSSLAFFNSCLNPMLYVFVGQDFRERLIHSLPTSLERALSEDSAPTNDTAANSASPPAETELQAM
In words: Change in calcium activity by peptide (Fura-2) in RBL cells overexpressing FPR2. The test is classed as cell-based. Particulars: calcium activity (Fura-2), graded per Table 3, read-out: EC50 for [Ca^2+] FPR2. The method, boiled down: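 Peptide-induced intracellular calcium change measured by Fura-2 fluorescence on a plate reader. Cells: RBL line overexpressing FPR2, dye-loaded 1 h at 37 °C then 30 min at RT in dark; peptides from 0.5 mM water/50% DMSO stocks, diluted in HBSS with 20 mM HEPES.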

Test [2] has as its target T2, FPR1 (Homo sapiens, UniProt P21462).
T2 sequence (P21462 1-350): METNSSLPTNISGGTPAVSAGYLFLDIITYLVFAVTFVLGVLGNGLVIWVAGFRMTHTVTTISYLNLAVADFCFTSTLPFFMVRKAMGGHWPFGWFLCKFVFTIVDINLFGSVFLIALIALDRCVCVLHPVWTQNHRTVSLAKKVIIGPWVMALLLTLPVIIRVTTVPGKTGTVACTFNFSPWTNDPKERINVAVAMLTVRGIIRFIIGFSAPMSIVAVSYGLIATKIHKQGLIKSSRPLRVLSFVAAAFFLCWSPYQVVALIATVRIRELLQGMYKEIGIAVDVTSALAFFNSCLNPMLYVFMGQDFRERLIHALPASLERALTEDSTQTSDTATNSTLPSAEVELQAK
In words: Change in calcium activity by peptide, FPR1 activation effect. Particulars: calcium activity (Fura-2), graded per Table 3, read-out: EC50 for [Ca^2+] FPR1. The test is classed as cell-based. The essentials:
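Calcium flux induced by peptide addition was monitored on a FlexStation 3 plate reader. Before this, cells seeded a day earlier (3×10^5/well) took up the Fura-2 dye for 1 h at 37 °C plus 30 min dark at room temperature.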

Regarding `CSCC[C@H](NC(=O)[C@@H](N)CCCCN)C(=O)N[C@@H](CCCCN)C(=O)N[C@@H](Cc1ccc(O)cc1)C(=O)N[C@@H](CCCCN)C(=O)N1CCC[C@H]1C(=O)N[C@H](CCSC)C(N)=O` [Peptide 66] (HELM PEPTIDE1{K.M.K.Y.K.P.[dM].[am]}$$$$V2.0), the EC50 is 11 to 100 nM in test [1] and > 10000 nM in test [2].
`CSCC[C@@H](NC(=O)[C@@H](NC(=O)[C@H](Cc1ccc(O)cc1)NC(=O)[C@H](Cc1ccc(O)cc1)NC(=O)[C@H](CCCNC(=N)N)NC(=O)[C@H](Cc1c[nH]c2ccccc12)NC(C)=O)C(C)C)C(N)=O` [Peptide 95] (HELM PEPTIDE1{[ac].W.R.Y.Y.V.[dM].[am]}$$$$V2.0): the values for the EC50 in test [1] and in test [2] were 11 to 100 nM and 101 to 1000 nM, respectively.
As for `CCCC(=O)N[C@@H](CCSC)C(=O)N[C@@H](CCCCN)C(=O)N[C@@H](Cc1ccc(O)cc1)C(=O)N[C@@H](Cc1c[nH]c2ccccc12)C(=O)N[C@@H](Cc1ccc(O)cc1)C(=O)N[C@H](CCSC)C(N)=O` [Peptide 91] (HELM PEPTIDE1{[CCCC(=O)[*:2]].M.K.Y.W.Y.[dM].[am]}$$$$V2.0), the figures for the EC50 in test [1] and in test [2] were 11 to 100 nM and > 10000 nM, respectively.
With `CSCC[C@H](NC(=O)[C@H](Cc1c[nH]cn1)NC(C)=O)C(=O)N[C@@H](CCCCN)C(=O)N[C@@H](Cc1ccc(O)cc1)C(=O)N[C@@H](CCCCN)C(=O)N[C@H](C(=O)N[C@H](CCSC)C(N)=O)C(C)C` [Peptide 22] (HELM PEPTIDE1{[ac].H.M.K.Y.K.V.[dM].[am]}$$$$V2.0), the results for the EC50 in test [1] and in test [2] were < 10 nM and > 10000 nM, respectively.
On the same counts, the results for `CCCCCCCC(=O)N[C@@H](CCCNC(=N)N)C(=O)N[C@@H](CCSC)C(=O)N[C@@H](CCCNC(=N)N)C(=O)N[C@@H](Cc1ccc(O)cc1)C(=O)N[C@@H](Cc1ccc(O)cc1)C(=O)N[C@H](C(=O)N[C@H](CCSC)C(N)=O)C(C)C` [Peptide 99] (HELM PEPTIDE1{[CCCCCCCC(=O)[*:2]].R.M.R.Y.Y.V.[dM].[am]}$$$$V2.0) are 11 to 100 nM and 1000 to 10000 nM.
As to `CC[C@H](C)[C@H](N)C(=O)N[C@@H](CCCCN)C(=O)N[C@@H](CCCCN)C(=O)N[C@@H](Cc1c[nH]c2ccccc12)C(=O)N[C@@H](CCSC)C(=O)N[C@H](CCSC)C(N)=O` [Peptide 130] (HELM PEPTIDE1{I.K.K.W.M.[dM].[am]}$$$$V2.0), the EC50 in test [1] was 11 to 100 nM; in test [2], > 10000 nM.
Taken in the same sequence, the figures for `CCCCCCCC(=O)N[C@H](C(=O)N[C@@H](CCCCN)C(=O)N[C@@H](Cc1ccc(O)cc1)C(=O)N[C@@H](CCCCN)C(=O)N1CCC[C@H]1C(=O)N[C@H](CCSC)C(N)=O)[C@@H](C)CC` [Peptide 145] (HELM PEPTIDE1{[CCCCCCCC(=O)[*:2]].I.K.Y.K.P.[dM].[am]}$$$$V2.0) were 11 to 100 nM and > 10000 nM.
On to `CSCC[C@@H](NC(=O)[C@@H]1CCCN1C(=O)[C@H](Cc1c[nH]c2ccccc12)NC(=O)[C@H](Cc1ccc(O)cc1)NC(=O)[C@H](CCCCN)NC(=O)[C@H](Cc1c[nH]cn1)NC(C)=O)C(N)=O` [Peptide 150] (HELM PEPTIDE1{[ac].H.K.Y.W.P.[dM].[am]}$$$$V2.0), for which the concentration for a half-maximal effect (EC50) in test [1] was < 10 nM; in test [2] it was 1000 to 10000 nM.
Taken in the same sequence, the figures for `CCCC(=O)N[C@@H](CCSC)C(=O)N[C@@H](CCCNC(=N)N)C(=O)N[C@@H](Cc1ccc(O)cc1)C(=O)N[C@@H](Cc1c[nH]c2ccccc12)C(=O)N[C@@H](Cc1ccc(O)cc1)C(=O)N[C@H](CCSC)C(N)=O` [Peptide 87] (HELM PEPTIDE1{[CCCC(=O)[*:2]].M.R.Y.W.Y.[dM].[am]}$$$$V2.0) were < 10 nM and > 10000 nM.
On the same counts, the results for `CCCC(=O)N[C@@H](CCSC)C(=O)N[C@@H](CCCNC(=N)N)C(=O)N[C@@H](Cc1ccc(O)cc1)C(=O)N[C@@H](CCCCN)C(=O)N1CCC[C@H]1C(=O)N[C@H](CCSC)C(N)=O` [Peptide 56] (HELM PEPTIDE1{[CCCC(=O)[*:2]].M.R.Y.K.P.[dM].[am]}$$$$V2.0) are < 10 nM and > 10000 nM.
As to `CC[C@H](C)[C@H](N)C(=O)N[C@@H](CCCCN)C(=O)N[C@@H](Cc1ccccc1)C(=O)N[C@@H](Cc1c[nH]c2ccccc12)C(=O)N[C@@H](CCSC)C(=O)N[C@H](CCSC)C(N)=O` [Peptide 129] (HELM PEPTIDE1{I.K.F.W.M.[dM].[am]}$$$$V2.0), the EC50 was 11 to 100 nM in test [1] and > 10000 nM in test [2].
Regarding `CCCC(=O)N[C@@H](Cc1c[nH]cn1)C(=O)N[C@@H](CCSC)C(=O)N[C@@H](CCCCN)C(=O)N[C@@H](Cc1ccc(O)cc1)C(=O)N[C@@H](CCCCN)C(=O)N[C@H](C(=O)N[C@H](CCSC)C(N)=O)C(C)C` [Peptide 23] (HELM PEPTIDE1{[CCCC(=O)[*:2]].H.M.K.Y.K.V.[dM].[am]}$$$$V2.0), the EC50 in test [1] was < 10 nM; in test [2], > 10000 nM.
Taken in the same sequence, the figures for `CCCCCCCC(=O)N[C@@H](CCCNC(=N)N)C(=O)N[C@@H](Cc1c[nH]c2ccccc12)C(=O)N[C@@H](CCCNC(=N)N)C(=O)N[C@@H](Cc1ccc(O)cc1)C(=O)N[C@@H](CCCCN)C(=O)N[C@@H](Cc1ccc(O)cc1)C(=O)N[C@H](CCSC)C(N)=O` [Peptide 34] (HELM PEPTIDE1{[CCCCCCCC(=O)[*:2]].R.W.R.Y.K.Y.[dM].[am]}$$$$V2.0) were 11 to 100 nM and > 10000 nM.
For the molecule `CSCC[C@H](NC(=O)[C@H](CCCNC(=N)N)NC(C)=O)C(=O)N[C@@H](CCCNC(=N)N)C(=O)N[C@@H](Cc1ccc(O)cc1)C(=O)N[C@@H](Cc1ccc(O)cc1)C(=O)N[C@@H](Cc1ccc(O)cc1)C(=O)N[C@H](CCSC)C(N)=O` [Peptide 125] (HELM PEPTIDE1{[ac].R.M.R.Y.Y.Y.[dM].[am]}$$$$V2.0), the results for the EC50 in test [1] and in test [2] were < 10 nM and > 10000 nM, respectively.
For the molecule `CSCC[C@H](NC(=O)[C@H](Cc1c[nH]cn1)NC(C)=O)C(=O)N[C@@H](CCCNC(=N)N)C(=O)N[C@@H](Cc1ccc(O)cc1)C(=O)N[C@@H](CCCCN)C(=O)N1CCC[C@H]1C(=O)N[C@H](CCSC)C(N)=O` [Peptide 59] (HELM PEPTIDE1{[ac].H.M.R.Y.K.P.[dM].[am]}$$$$V2.0), the concentration for a half-maximal effect (EC50) in test [1] was < 10 nM; in test [2], > 10000 nM.
Regarding `CSCC[C@@H](NC(=O)[C@H](Cc1ccc(O)cc1)NC(=O)[C@H](CCCCN)NC(=O)[C@H](Cc1ccc(O)cc1)NC(=O)[C@H](CCCNC(=N)N)NC(=O)[C@H](Cc1c[nH]c2ccccc12)NC(=O)[C@@H](N)CCCNC(=N)N)C(N)=O` [Peptide 32] (HELM PEPTIDE1{R.W.R.Y.K.Y.[dM].[am]}$$$$V2.0), the EC50 was 11 to 100 nM in test [1] and > 10000 nM in test [2].
For the molecule `CSCC[C@@H](NC(=O)[C@@H]1CCCN1C(=O)[C@H](CCCCN)NC(=O)[C@H](Cc1ccc(O)cc1)NC(=O)[C@H](CCCCN)NC(=O)[C@H](Cc1c[nH]cn1)NC(C)=O)C(N)=O` [Peptide 147] (HELM PEPTIDE1{[ac].H.K.Y.K.P.[dM].[am]}$$$$V2.0), the EC50 is < 10 nM in test [1] and > 10000 nM in test [2].
Take `CC[C@H](C)[C@H](NC(=O)[C@H](CCCNC(=N)N)NC(=O)[C@H](Cc1ccc(O)cc1)NC(=O)[C@H](CCCNC(=N)N)NC(=O)[C@H](Cc1c[nH]c2ccccc12)NC(=O)[C@@H](N)CCCNC(=N)N)C(=O)N[C@H](CCSC)C(N)=O` [Peptide 152] (HELM PEPTIDE1{R.W.R.Y.R.I.[dM].[am]}$$$$V2.0): the EC50 in test [1] is 11 to 100 nM; in test [2], > 10000 nM.

A word on the EC50: it is the concentration at which the effect is half-maximal.
